In this assay the target is PehR (Ralstonia pseudosolanacearum, UniProt Q8XVM3). Nature of the assay: biochemical.

From paper PMC10535256 (ACS Omega, 2023) come the findings set out here.

Chain of PehR (Q8XVM3 1-570): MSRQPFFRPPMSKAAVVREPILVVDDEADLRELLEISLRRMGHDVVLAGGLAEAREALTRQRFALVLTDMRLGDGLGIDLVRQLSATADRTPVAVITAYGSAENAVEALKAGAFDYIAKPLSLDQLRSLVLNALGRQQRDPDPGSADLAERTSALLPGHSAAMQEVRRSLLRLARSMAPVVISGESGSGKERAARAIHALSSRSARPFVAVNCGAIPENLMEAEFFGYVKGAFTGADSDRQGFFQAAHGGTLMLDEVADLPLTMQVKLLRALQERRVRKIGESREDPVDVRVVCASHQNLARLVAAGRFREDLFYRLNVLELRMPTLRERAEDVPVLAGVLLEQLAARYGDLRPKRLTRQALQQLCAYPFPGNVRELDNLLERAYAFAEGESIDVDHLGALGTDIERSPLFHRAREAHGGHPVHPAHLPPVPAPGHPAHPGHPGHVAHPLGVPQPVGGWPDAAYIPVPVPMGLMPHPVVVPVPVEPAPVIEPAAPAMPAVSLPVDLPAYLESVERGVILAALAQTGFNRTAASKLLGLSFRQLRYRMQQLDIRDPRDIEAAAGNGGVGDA

For orientation: Kd means the free concentration of one partner at which half of the binding sites on the other are occupied at equilibrium, for simple one-to-one binding. A lower Kd goes with tighter binding. As for `Nc1ncnc2c1ncn2[C@@H]1O[C@H](COP(=O)(O)OP(=O)(O)OP(=O)(O)O)[C@H]2OC3(O[C@H]21)C([N+](=O)[O-])=CC(=[N+]([O-])O)C=C3[N+](=O)[O-]` (stereo partly shown) [TNP-ATP], the Kd worked out at 106 µM.
